Measured values taken from patent US8907103B2, “Glucagon antagonists” (Metabasis Therapeutics, Inc., priority 2008, dated 2014).
Like-named read-outs stand apart in the source and are kept apart here.

Experiments:
human glucagon receptor = molecular target: T1, human glucagon receptor (Homo sapiens, UniProt P47871); experiment: Human glucagon receptor affinity ([125I]glucagon displacement, membrane preparation); assay type: binding
T1 construct: host or cells: human liver samples or a recombinant cell line (alternatives)
Method: Compounds provided herein are dissolved in a suitable solvent (e.g., dimethlysulfoxide) at a concentration of 10 mM and then diluted in buffer (e.g., 50 mM Hepes, pH 7.4, 5 mM MgCl2, 1 mM CaCl2, and 0.2% BSA) to concentrations ranging from 1 nM to 100 μM. Compounds (20 μL/well) and [^125I]glucagon at the final concentration of 0.125 nM (20 μl/well) (Perkin Elmer) are added to and mixed in wells of a 96-well plate (Costar, Corning) containing 120 μL of buffer. Next, an appropriate aliquot of a membrane preparation containing the human glucagon receptor (isolated from human liver samples or obtained from a recombinant cell line) is added to the wells. The binding mixtures are incubated for 2 hrs at room temperature. In the meantime, a MultiScreen 96-well filter plate (Millipore) is treated with 200 μL of the buffer, which is vacuumed through the filter just before the binding mixtures are transferred to the plate. At the end of incubation, binding mixtures are transferred to the wells of the MultiScreen 96-well filter plate and filtered through by applying vacuum. The plate is washed once with 200 μL per well of the buffer, and the filters are dried and counted using a gamma counter.

human hepatocytes = experiment: Functional antagonism of glucagon-stimulated glucose production in hepatocytes; assay type: cell-based; conditions: human hepatocyte assay, 1 nM glucagon; read-out: Hu Hepatocyte EC50
Method: Primary human, monkey, dog, rat, or mouse hepatocytes are seeded onto collagen-coated 24-well plates in Williams E medium (supplemented with 10% fetal bovine serum) and incubated at 37° C. overnight in M199 medium (supplemented with 15 mM glucose and 10 nM human insulin). The following day cells are washed twice with a glucose-free Kreb-bicarbonate buffer, pH 7.4, containing 0.1% BSA. Cells are then incubated at 37° C. with the aforementioned buffer containing 1 nM glucagon and varying concentrations of a glucagon antagonist (0-100 microM). Control wells without glucagon or antagonist are also included. After 1 hour, an aliquot of the medium is removed and analyzed for glucose content by means of the glucose oxidase method. The background glucose levels observed in the control wells are subtracted from the glucagon and antagonist containing wells. A graph of % glucose concentration vs drug concentration is plotted and an EC50 value for inhibition of glucose production generated using Sigmaplot software (SAS, Cary, N.C.). Alternatively, intracellular cAMP levels are measured using standard kits and EC50 values determined by plotting these levels against drug concentration. Antagonists of the glucagon receptor inhibit glucagon-induced cAMP production.

[1] = human glucagon receptor binding assay, stereo column says racemic or R-isomer, read-out: Hu IC50
[2] = R-isomer, read-out: Hu 1050 (nM) R
[3] = S-isomer, read-out: Hu 1050 (nM) S

T1 sequence (P47871 26-477): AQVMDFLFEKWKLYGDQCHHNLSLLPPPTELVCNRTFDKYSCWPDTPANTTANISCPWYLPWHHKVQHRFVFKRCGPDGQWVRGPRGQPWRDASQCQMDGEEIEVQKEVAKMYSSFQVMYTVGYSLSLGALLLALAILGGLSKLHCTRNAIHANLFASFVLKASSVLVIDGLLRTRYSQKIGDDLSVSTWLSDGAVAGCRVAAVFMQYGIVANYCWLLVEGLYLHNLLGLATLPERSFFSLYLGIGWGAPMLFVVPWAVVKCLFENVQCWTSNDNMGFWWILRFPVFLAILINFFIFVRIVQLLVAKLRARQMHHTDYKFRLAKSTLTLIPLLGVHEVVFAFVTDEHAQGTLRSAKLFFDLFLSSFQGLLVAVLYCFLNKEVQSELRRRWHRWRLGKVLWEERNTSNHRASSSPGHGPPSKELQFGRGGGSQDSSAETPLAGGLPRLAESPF

In the case of `CC12CCC(C=C1c1ccc(C(Cc3ccc(C(=O)NCCS(=O)(=O)O)cc3)C(=O)Nc3ccc(-c4nc5ccccc5o4)cc3)cc1)C2(C)C` (racemic), the IC50 (human glucagon receptor; [1]) is reported as 18 nM and the EC50 (human hepatocytes) is reported as 27 nM.
`CC(C)(C)c1ccc(-c2ccc(C(Cc3ccc(C(=O)NCCS(=O)(=O)O)cc3)C(=O)Nc3ccc(-c4ccccc4Cl)cc3)cc2)cc1` (racemic) showed an IC50 (human glucagon receptor; [1]) of 18 nM and an EC50 (human hepatocytes) of 412 nM.
`CC(C)(C)c1ccc(-c2ccc(C(Cc3ccc(C(=O)NCCS(=O)(=O)O)cc3)C(=O)Nc3ccc(-c4cc(Cl)cc(Cl)c4)cc3)cc2)cc1` (racemic) was tested, and the IC50 (human glucagon receptor; [1]) was 15 nM and the EC50 (human hepatocytes) was 132 nM.
In the case of `Cc1cc(Cl)ccc1-c1ccc(NC(=O)C(Cc2ccc(C(=O)NCCS(=O)(=O)O)cc2)c2cccc(-c3ccc(C(C)(C)C)cc3)c2)cc1` (racemic), the IC50 (human glucagon receptor; [1]) is reported as 15 nM and the EC50 (human hepatocytes) is reported as 329 nM.
`Cc1cc(C)c2oc(-c3ccc(NC(=O)C(Cc4ccc(C(=O)NCCS(=O)(=O)O)cc4)c4ccc(-c5ccc(C(C)(C)C)cc5)cc4)cc3)nc2c1` (racemic) showed an IC50 (human glucagon receptor; [1]) of 11 nM and an EC50 (human hepatocytes) of 560 nM.
`CC(C)(C)c1ccc(-c2cccc(C(Cc3ccc(C(=O)NCCS(=O)(=O)O)cc3)C(=O)Nc3ccc(-c4ccc(Cl)cc4Cl)cc3)c2)cc1` (racemic) gave an IC50 (human glucagon receptor; [1]) of 15 nM and an EC50 (human hepatocytes) of 215 nM.
`Cc1cc(Cl)ccc1-c1ccc(NC(=O)C(Cc2ccc(C(=O)NCCS(=O)(=O)O)cc2)c2ccc(-c3ccc(C(C)(C)C)cc3)cc2)c(Cl)c1` (racemic) showed an IC50 (human glucagon receptor; [1]) of 19 nM.
Compound `CC1(C)CC=C(c2ccc(NC(=O)C(Cc3ccc(C(=O)NCCS(=O)(=O)O)cc3)c3ccc(-c4ccc(C(C)(C)C)cc4)cc3)cc2)CC1` (racemic) has an IC50 (human glucagon receptor; [1]) of 18 nM and an EC50 (human hepatocytes) of 60 nM.
`CC(C)(C)c1ccc(-c2ccc(C(Cc3ccc(C(=O)NCCS(=O)(=O)O)cc3)C(=O)Nc3ccc(-c4cccc(Cl)c4)cc3)cc2)cc1` (racemic) gave an IC50 (human glucagon receptor; [1]) of 12 nM and an EC50 (human hepatocytes) of 661 nM.
`Cc1ccc(-c2ccc(NC(=O)C(Cc3ccc(C(=O)NCCS(=O)(=O)O)cc3)c3ccc(-c4ccc(C(C)(C)C)cc4)cc3)cc2)cc1Cl` (racemic) showed an IC50 (human glucagon receptor; [1]) of 10 nM.
In the case of `Cc1ccc(-c2ccc(NC(=O)C(Cc3ccc(C(=O)NCCS(=O)(=O)O)cc3)c3ccc(C4=CCC(C)(C)CC4)cc3)c(Cl)c2)cc1Cl` (racemic), the IC50 (human glucagon receptor; [1]) is reported as 16 nM.
Work on `CC(C)(C)C1CC=C(c2ccc(C(Cc3ccc(C(=O)NCCS(=O)(=O)O)cc3)C(=O)Nc3ccc(-c4nc5ccccc5o4)cc3)cc2)CC1` (racemic) yielded an IC50 (human glucagon receptor; [1]) of 8 nM and an EC50 (human hepatocytes) of 116 nM.
With `CC(C)(C)C1CCC(c2ccc(C(Cc3ccc(C(=O)NCCS(=O)(=O)O)cc3)C(=O)Nc3ccc(-c4nc5ccccc5o4)cc3)cc2)CC1` (racemic) the IC50 (human glucagon receptor; [1]) was 18 nM and the EC50 (human hepatocytes) was 161 nM.
With `CC(C)(C)C1CCC(c2ccc(C(Cc3ccc(C(=O)NCCS(=O)(=O)O)cc3)C(=O)Nc3ccc(-c4ccc(C(F)(F)F)cc4Cl)cc3)cc2)CC1` (racemic) the IC50 (human glucagon receptor; [1]) was 12 nM and the EC50 (human hepatocytes) was 30 nM.
For `O=C(NCCS(=O)(=O)O)c1ccc(CC(C(=O)Nc2ccc(-c3ccc(C(F)(F)F)cc3Cl)cc2)c2ccc(C3=CCCCC3)cc2)cc1` (racemic), the IC50 (human glucagon receptor; [1]) was 16 nM.
`Cc1cc(C(F)(F)F)ccc1-c1ccc(NC(=O)C(Cc2ccc(C(=O)NCCS(=O)(=O)O)cc2)c2ccc(C3=CCCCC3)cc2)cc1` (racemic) gave an IC50 (human glucagon receptor; [1]) of 16 nM and an EC50 (human hepatocytes) of 78 nM.
With `CC1(C)CC=C(c2ccc(C(Cc3ccc(C(=O)NCCS(=O)(=O)O)cc3)C(=O)Nc3ccc(-c4ccc(C(F)(F)F)cc4Cl)cc3)cc2)CC1` (racemic) the IC50 (human glucagon receptor; [1]) was 15 nM and the EC50 (human hepatocytes) was 137 nM.
With `Cc1ccc(-c2cc(Cl)c(NC(=O)C(Cc3ccc(C(=O)NCCS(=O)(=O)O)cc3)c3ccc(C=CC(C)(C)C)cc3)cc2C)cc1F` (racemic) the IC50 (human glucagon receptor; [1]) was 20 nM and the EC50 (human hepatocytes) was 143 nM.
Work on `Cc1cc(Cl)ccc1-c1ccc(NC(=O)C(Cc2ccc(C(=O)NCCS(=O)(=O)O)cc2)c2cccc(C3=CCCCC3)c2)cc1` (racemic) yielded an IC50 (human glucagon receptor; [1]) of 14 nM and an EC50 (human hepatocytes) of 32 nM.
`Cc1cc(Cl)ccc1-c1ccc(NC(=O)C(Cc2ccc(C(=O)NCCS(=O)(=O)O)cc2)c2cccc(C3=CCC(C)(C)C=C3)c2)cc1` (racemic) gave an IC50 (human glucagon receptor; [1]) of 19 nM and an EC50 (human hepatocytes) of 108 nM.
For `CC1(C)C=CC(c2cccc(C(Cc3ccc(C(=O)NCCS(=O)(=O)O)cc3)C(=O)Nc3ccc(-c4ccc(Cl)cc4Cl)cc3)c2)=CC1` (racemic), the IC50 (human glucagon receptor; [1]) was 18 nM and the EC50 (human hepatocytes) was 61 nM.
Work on `CC(C)(C)c1ccc(-c2ccc(C(Cc3ccc(C(=O)NCCS(=O)(=O)O)cc3)C(=O)Nc3ccc(-c4nc5ccccc5o4)cc3)cc2)cc1` (racemic) yielded an IC50 (human glucagon receptor; [1]) of 12 nM and an EC50 (human hepatocytes) of 241 nM.
`Cc1cc(NC(=O)C(Cc2ccc(C(=O)NCCS(=O)(=O)O)cc2)c2ccc(-c3ccc(C(C)(C)C)cc3)cc2)ccc1-c1nc2ccccc2o1` (racemic) was tested, and the IC50 (human glucagon receptor; [1]) was 8 nM and the EC50 (human hepatocytes) was 167 nM.
Compound `CC(C)(C)c1ccc(-c2ccc(C(Cc3ccc(C(=O)NCCS(=O)(=O)O)cc3)C(=O)Nc3ccc(C4=CCC(C(C)(C)C)CC4)cc3)cc2)cc1` (racemic) has an IC50 (human glucagon receptor; [1]) of 12 nM.
`CC(C)(C)c1ccc(-c2ccc(C(Cc3ccc(C(=O)NCCS(=O)(=O)O)cc3)C(=O)Nc3ccc(-c4c(Cl)cccc4Cl)cc3)cc2)cc1` (racemic) gave an IC50 (human glucagon receptor; [1]) of 18 nM.
Compound `Cc1cc(C)c(-c2ccc(NC(=O)C(Cc3ccc(C(=O)NCCS(=O)(=O)O)cc3)c3ccc(C4=CCC(C)(C)CC4)cc3)cc2)c(C)c1` (racemic) has an IC50 (human glucagon receptor; [1]) of 12 nM.
Compound `CC(C)(C)c1ccc(-c2ccc(C(Cc3ccc(C(=O)NCCS(=O)(=O)O)cc3)C(=O)Nc3ccc(-c4ccc(Cl)c(Cl)c4)cc3)cc2)cc1` (racemic) has an IC50 (human glucagon receptor; [1]) of 10 nM.
`Cc1ccc(-c2ccc(NC(=O)C(Cc3ccc(C(=O)NCCS(=O)(=O)O)cc3)c3ccc(C4=CCC(C)(C)CC4)cc3)c(Cl)c2)c(C)c1` (racemic) showed an IC50 (human glucagon receptor; [1]) of 14 nM.
In the case of `Cc1ccc(Cl)cc1-c1ccc(NC(=O)C(Cc2ccc(C(=O)NCCS(=O)(=O)O)cc2)c2ccc(-c3ccc(C(C)(C)C)cc3)cc2)cc1` (racemic), the IC50 (human glucagon receptor; [1]) is reported as 10 nM and the EC50 (human hepatocytes) is reported as 192 nM.
`CC1(C)CC=C(c2ccc(C(Cc3ccc(C(=O)NCCS(=O)(=O)O)cc3)C(=O)Nc3ccc(-c4ccc(C(C)(C)C)cc4)cc3Cl)cc2)CC1` (racemic) gave an IC50 (human glucagon receptor; [1]) of 10 nM.
`CC(C)(C)C1CCC(c2ccc(C(Cc3ccc(C(=O)NCCS(=O)(=O)O)cc3)C(=O)Nc3ccc(-c4ccc(Cl)cc4Cl)cc3)cc2)CC1` (racemic) [drawing 110] was tested, and the IC50 (human glucagon receptor; [1]) was 18 nM.
`Cc1cc(Cl)ccc1-c1ccc(NC(=O)C(Cc2ccc(C(=O)NCCS(=O)(=O)O)cc2)c2ccc(C=CC(C)(C)C)cc2)cc1` (single isomer, unassigned) [drawing 125 R] showed an IC50 (human glucagon receptor; [2]) of 14 nM.
`Cc1cc(Cl)ccc1-c1ccc(NC(=O)C(Cc2ccc(C(=O)NCCS(=O)(=O)O)cc2)c2ccc(C=CC(C)(C)C)cc2)cc1` (single isomer, unassigned) [drawing 125 S] gave an IC50 (human glucagon receptor; [3]) of 61 nM.
`Cc1cc(Cl)ccc1-c1ccc(NC(=O)C(Cc2ccc(C(=O)NCCS(=O)(=O)O)cc2)c2ccc(C3=CCC(C(C)(C)C)CC3)cc2)cc1` (single isomer, unassigned) [drawing 127 R] gave an IC50 (human glucagon receptor; [2]) of 6 nM.
With `Cc1cc(Cl)ccc1-c1ccc(NC(=O)C(Cc2ccc(C(=O)NCCS(=O)(=O)O)cc2)c2ccc(C3=CCC(C(C)(C)C)CC3)cc2)cc1` (single isomer, unassigned) [drawing 127 S] the IC50 (human glucagon receptor; [3]) was 20 nM.
For `Cc1cc(Cl)ccc1-c1ccc(NC(=O)C(Cc2ccc(C(=O)NCCS(=O)(=O)O)cc2)c2ccc(C3=CCC(C(C)(C)C)CC3)cc2)cc1` (single isomer, unassigned) [drawing 129 R], the IC50 (human glucagon receptor; [2]) was 7 nM.
Compound `Cc1cc(Cl)ccc1-c1ccc(NC(=O)C(Cc2ccc(C(=O)NCCS(=O)(=O)O)cc2)c2ccc(C3=CCC(C(C)(C)C)CC3)cc2)cc1` (single isomer, unassigned) [drawing 129 S] has an IC50 (human glucagon receptor; [3]) of 19 nM.
`Cc1cccc2oc(-c3ccc(NC(=O)C(Cc4ccc(C(=O)NCCS(=O)(=O)O)cc4)c4ccc(-c5ccc(C(C)(C)C)cc5)cc4)cc3)nc12` (single isomer, unassigned) [drawing 135 R] gave an IC50 (human glucagon receptor; [2]) of 10 nM.
With `Cc1cccc2oc(-c3ccc(NC(=O)C(Cc4ccc(C(=O)NCCS(=O)(=O)O)cc4)c4ccc(-c5ccc(C(C)(C)C)cc5)cc4)cc3)nc12` (single isomer, unassigned) [drawing 135 S] the IC50 (human glucagon receptor; [3]) was 49 nM.
`Cc1cc(Cl)ccc1-c1ccc(NC(=O)C(Cc2ccc(C(=O)NCCS(=O)(=O)O)cc2)c2ccc(-c3ccc(C(C)(C)C)cc3)cc2)cc1` (stereo not shown) [drawing 131 R] gave an IC50 (human glucagon receptor; [2]) of 11 nM.
Work on `Cc1cc(Cl)ccc1-c1ccc(NC(=O)C(Cc2ccc(C(=O)NCCS(=O)(=O)O)cc2)c2ccc(C3=CCC(C)(C)CC3)cc2)cc1` (stereo not shown) [drawing 133 R] yielded an IC50 (human glucagon receptor; [2]) of 10 nM.
